The values that follow come from ChEMBL document CHEMBL1201862, “PubChem BioAssay data set” (2004).

SMILES strings stand for the structures.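 Compound exposure: 48 hours, 5 concentrations, 96-well plates. At the GI50, growth is halved.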 Active and inactive are the calls of the source. Rule as the data show it: active = GI50 up to about 1.1 µM and inactive = higher.

Among the test systems are DU-145; HCC 2998; HCT-15; HL-60; K562; KM12; M14; MDA-MB-231; NCI-H23; NCI-H522; OVCAR-3; OVCAR-5; RPMI-8226; SK-MEL-5; SNB-19; UACC-62; Malme-3M; SF-539; HOP-92.
Common to all, as to assay: NCI-60 cell line screen, 48 h

With `O=C1Nc2cccc(C(F)(F)F)c2/C1=N/Nc1ccccc1[N+](=O)[O-]`, the GI50 in the test on DU-145 is 33 µM (inactive); in the test with HCC 2998, 28.7 µM (inactive); in the test on HCT-15, 34.4 µM; in the test with HL-60, 32.9 µM (inactive); with K562, 17 µM (inactive); with KM12, 5.97 µM (inactive). Besides, the GI50 was > 100 µM (inactive) in the test with M14; 28.4 µM (inactive) in the test on MDA-MB-231; 22.1 µM (inactive) with NCI-H23; 22.4 µM (inactive) in the test with NCI-H522; 17.5 µM (inactive) with OVCAR-3; 86.5 µM (inactive) with OVCAR-5. In addition, the GI50 in the test on RPMI-8226 was 11.4 µM (inactive); in the test on SK-MEL-5, 21.4 µM (inactive); in the test on SNB-19, 51.5 µM (inactive); in the test on UACC-62, 51.3 µM (inactive).
Turning to `COc1cc2c[n+](C)c3c4cc(OC)c(OC)cc4c(OC)cc3c2cc1OC`, the GI50 is 8.45 µM (inactive) with DU-145; 6.01 µM (inactive) with HCC 2998; more than 100 µM in the test on HCT-15; 4.03 µM (inactive) with K562; 5.27 µM (inactive) in the test with KM12; 30.5 µM (inactive) in the test with M14. The GI50 in the test on MDA-MB-231 was 0.53 µM (active); in the test with Malme-3M it was 2.06 µM (inactive); with NCI-H23, 5.58 µM (inactive); with NCI-H522, 0.0359 µM (active); in the test with OVCAR-3, 2.34 µM (inactive); in the test with OVCAR-5 it was > 100 µM (inactive). The GI50 with RPMI-8226 is 16.4 µM (inactive); in the test on SF-539 it was 1.87 µM (inactive); in the test with SK-MEL-5, 2.77 µM (inactive); in the test on SNB-19, 1.03 µM (active); in the test with UACC-62, 6.27 µM (inactive).
Regarding `O=C1/C(=C/c2ccco2)N=C2Sc3c([nH]cnc3=O)N12`, the GI50 is > 100 µM (inactive) with DU-145; more than 100 µM with HCT-15; > 100 µM (inactive) with HL-60; > 100 µM (inactive) with HOP-92; > 100 µM (inactive) in the test with K562; > 100 µM (inactive) in the test on KM12. The GI50 in the test with M14, in the test with MDA-MB-231, in the test with Malme-3M, in the test with NCI-H23, in the test on NCI-H522 and in the test with OVCAR-3 was > 100 µM (inactive) each time. The GI50 with OVCAR-5, in the test on RPMI-8226, in the test on SF-539, in the test on SK-MEL-5 and with SNB-19 was > 100 µM (inactive) throughout.
As for `Nc1nc(N)c(Cn2ccnc2)c(O)n1`, the GI50 is > 100 µM (inactive) in the test on DU-145; more than 100 µM in the test on HCT-15; > 100 µM (inactive) with HOP-92; 0.049 µM (active) with K562; > 100 µM (inactive) in the test with KM12; > 100 µM (inactive) in the test with M14. The GI50 in the test on MDA-MB-231, with Malme-3M, with NCI-H23, in the test on NCI-H522, with OVCAR-3 and with OVCAR-5 was > 100 µM (inactive) in each case. The GI50 with RPMI-8226, in the test on SF-539, in the test with SK-MEL-5, in the test with SNB-19 and with UACC-62 was > 100 µM (inactive) in each case.
For `CC(=O)/N=C1/N(/C=C2\C(=O)Oc3ccccc3C2=O)C(=O)/C(=C/c2ccccc2Cl)N1C`, the GI50 with DU-145 is > 100 µM (inactive); in the test with HCC 2998 it was > 100 µM (inactive); in the test on HCT-15 it was 52.6 µM; in the test with HL-60, > 100 µM (inactive); in the test on K562, > 100 µM (inactive); in the test on KM12 it was > 100 µM (inactive). The GI50 in the test on M14, with MDA-MB-231, with Malme-3M, in the test on NCI-H23, in the test on NCI-H522 and with OVCAR-5 was > 100 µM (inactive) in each case. The GI50 is > 100 µM (inactive) with RPMI-8226; > 100 µM (inactive) in the test with SF-539; 48 µM (inactive) in the test on SK-MEL-5; 95.3 µM (inactive) in the test with SNB-19; > 100 µM (inactive) in the test on UACC-62.
In the case of `COC(=O)CN(CC(=O)NCCNC(=O)OC(C)(C)C)C1CCCCC1N(CC(=O)OC)CC(=O)OC` (configuration not stated), the GI50 in the test on DU-145 was > 100 µM (inactive); in the test on HCC 2998 it was > 100 µM (inactive); in the test on HCT-15, more than 100 µM; in the test with HL-60, > 100 µM (inactive); with K562, > 100 µM (inactive); with KM12, > 100 µM (inactive). Besides, the GI50 in the test with MDA-MB-231, in the test on Malme-3M, in the test with NCI-H23, with NCI-H522, with OVCAR-3 and in the test on OVCAR-5 was > 100 µM (inactive) throughout. Also, the GI50 in the test on RPMI-8226, with SF-539, with SK-MEL-5, in the test with SNB-19 and with UACC-62 was > 100 µM (inactive) each time.
Turning to `COc1ccc(C(=O)/C=C2\Nc3cccnc3N\C2=C/C(=O)c2ccc(OC)cc2)cc1`, the GI50 with DU-145 was 19.9 µM (inactive); with HCC 2998, 23.9 µM (inactive); with HCT-15, 32.1 µM; with HL-60, > 100 µM (inactive); in the test with HOP-92 it was 53.1 µM (inactive); with K562, 57.9 µM (inactive). The GI50 in the test with KM12 was 23.4 µM (inactive); with M14, 20.9 µM (inactive); in the test with MDA-MB-231, 13.5 µM (inactive); with Malme-3M it was 11.7 µM (inactive); with NCI-H23 it was 13.5 µM (inactive); in the test on OVCAR-3, 14.8 µM (inactive). Further, the GI50 in the test with OVCAR-5 is 42.3 µM (inactive); in the test on RPMI-8226, 42.2 µM (inactive); in the test with SF-539, 12.5 µM (inactive); in the test with SK-MEL-5, 25.1 µM (inactive); in the test on SNB-19, 18.7 µM (inactive); in the test with UACC-62, 17.3 µM (inactive).
As to `Cc1cc(O)c(C(O)c2ccccn2)cc1O` (configuration not stated), the GI50 in the test with DU-145 is 37.9 µM (inactive); in the test on HCC 2998, 21.3 µM (inactive); with HCT-15, 18.2 µM; with HL-60, 11.1 µM (inactive); in the test on K562, 3.77 µM (inactive); in the test on KM12 it was 24.5 µM (inactive). In addition, the GI50 in the test with M14 is 20.2 µM (inactive); in the test on MDA-MB-231 it was 17.5 µM (inactive); with Malme-3M, 20.7 µM (inactive); with NCI-H23, 18 µM (inactive); in the test on NCI-H522, 3.78 µM (inactive); with OVCAR-3 it was 15 µM (inactive). Further, the GI50 in the test with OVCAR-5 was 17.2 µM (inactive); with RPMI-8226, 20.4 µM (inactive); in the test on SF-539 it was 38.8 µM (inactive); with SK-MEL-5, 23.2 µM (inactive); with SNB-19, 55.3 µM (inactive); in the test with UACC-62, 14.5 µM (inactive).
Regarding `COC(=O)/C=C/c1cnc2c(c1)oc(=O)n2C`, the GI50 in the test with DU-145 is > 100 µM (inactive); in the test on HCC 2998, > 100 µM (inactive); with HCT-15, more than 100 µM; in the test with HL-60, > 100 µM (inactive); in the test on HOP-92, > 100 µM (inactive); in the test on K562 it was > 100 µM (inactive). The GI50 with KM12, in the test with M14, in the test with MDA-MB-231, in the test with Malme-3M, in the test on NCI-H23 and with OVCAR-3 was > 100 µM (inactive) in each case. Moreover, the GI50 in the test on OVCAR-5, in the test with RPMI-8226, in the test with SF-539, with SK-MEL-5, in the test with SNB-19 and in the test on UACC-62 was > 100 µM (inactive) in each case.
For the compound `C=CCOC1=C(OC(C)=O)C(=O)OC1C1COC(C)(C)O1` (configuration not stated), the GI50 was > 92.9 µM (inactive) in the test on DU-145; 36.4 µM (inactive) in the test with HCC 2998; 19.5 µM in the test on HCT-15; 18.5 µM (inactive) in the test with HL-60; 23.6 µM (inactive) in the test on K562; 34.2 µM (inactive) with KM12. Further, the GI50 was 36 µM (inactive) in the test on M14; 38.4 µM (inactive) in the test on MDA-MB-231; 21.8 µM (inactive) with Malme-3M; 31.5 µM (inactive) in the test on NCI-H23; 17.5 µM (inactive) in the test on NCI-H522; 17.5 µM (inactive) in the test on OVCAR-3. Moreover, the GI50 is 60 µM (inactive) with OVCAR-5; 31.8 µM (inactive) in the test with RPMI-8226; 37.1 µM (inactive) in the test with SF-539; 44.6 µM (inactive) with SK-MEL-5; > 74.3 µM (inactive) with SNB-19; 57 µM (inactive) in the test with UACC-62.
As for `C1CCC(CC2CCC(NC3=NCCO3)CC2)CC1` (configuration not stated), the GI50 with DU-145 is 30 µM (inactive); in the test on HCC 2998, 20.7 µM (inactive); with HCT-15 it was 12.3 µM; with HL-60 it was 17.9 µM (inactive); in the test with K562, 14 µM (inactive); in the test on KM12 it was 18.3 µM (inactive). In addition, the GI50 was 18.9 µM (inactive) in the test on M14; 19.4 µM (inactive) with MDA-MB-231; 15.8 µM (inactive) in the test on Malme-3M; 17.9 µM (inactive) in the test with NCI-H23; 22.2 µM (inactive) with NCI-H522; 15.4 µM (inactive) in the test on OVCAR-3. Also, the GI50 is 23.6 µM (inactive) in the test on OVCAR-5; 26.1 µM (inactive) with RPMI-8226; 16.8 µM (inactive) in the test with SF-539; 19.5 µM (inactive) in the test with SK-MEL-5; 17.3 µM (inactive) with SNB-19; 17.3 µM (inactive) with UACC-62.
Turning to `c1ccc(-c2ccc(/N=N/N3CCCC3)cc2)cc1`, the GI50 was > 100 µM (inactive) in the test with DU-145; more than 100 µM with HCT-15; > 100 µM (inactive) with HOP-92; > 100 µM (inactive) with K562; > 100 µM (inactive) in the test on KM12; > 100 µM (inactive) with M14. Further, the GI50 was > 100 µM (inactive) in the test on MDA-MB-231; > 100 µM (inactive) in the test with NCI-H23; > 100 µM (inactive) in the test on NCI-H522; > 100 µM (inactive) with OVCAR-3; > 100 µM (inactive) in the test with OVCAR-5; 22.8 µM (inactive) in the test on RPMI-8226. Moreover, the GI50 in the test on SF-539, in the test on SK-MEL-5, in the test on SNB-19 and in the test on UACC-62 was > 100 µM (inactive) throughout.
